{"source": "paper PMC6856681", "about": "“Accumulation of Dietary S‐Methyl Cysteine Sulfoxide in Human Prostate Tissue” (Molecular Nutrition & Food Research, 2019)", "key": {"[1]": {"set-up": "method as in Sivapalan et al.19", "settings": "human, ref Sivapalan et al.19, cited from earlier work"}, "[2]": {"experiment": "Effect of heating the soup to boiling (microwave or conduction) on metabolite amount", "assay_type": "physicochemical", "settings": "heating to boiling by microwave or conduction vs unheated control", "source_text": "One portion of soup contained 280 ± 8.8 µmoles of glucoraphanin and 1513 ± 36.8 µmoles of SMCSO. The soup was provided frozen and heated up prior to consumption using a standard procedure. Heating either by microwave or conduction had no effect on SMCSO or glucoraphanin concentration (Figure 3).\nFigure 3 The effect of heating soup to boiling on amount of a) glucoraphanin and b) SMCSO compared to unheated control by microwave or conduction heating. Columns are means of two independent samples."}, "[3]": {"settings": "human, cited from earlier work"}, "[4]": {"experiment": "SAP study: metabolites in prostate biopsy tissue, peri-prostatic adipose tissue and urine after 4 weeks of broccoli soup supplementation vs control", "assay_type": "in vivo, human", "source_text": "The SAP study (Figure 2) was a two-arm, parallel un-blinded, dietary-supplementation study, delivering a short, high-dose broccoli soup supplement to a habitual diet to men in the pre-biopsy window before a trans-perineal prostate biopsy (TPB). The primary aim was to determine whether supplementation of a diet with a broccoli soup would enhance the levels of […] and other broccoli-derived metabolites in the prostate of men scheduled for prostate biopsy. Eighteen men were randomized to either continue their normal diet (non-supplementation controls) or receive three portions of a glucoraphanin-rich broccoli soup (300 g) per week for a minimum of 4 weeks manufactured from a broccoli cultivar heterozygous for a Myb28^villosa allele, as previously described.19 On the study day, samples of whole blood, urine (following a digital rectal prostatic massage), prostate, and peri-prostatic adipose tissue were collected. The protocol was approved by the Human Research Governance Committee ([…] 01/2016) at Quadram Institute Bioscience and given full ethical approval by The East of England - Cambridge East Research Ethics Committee (ref: 16/EE/0054). The trial was registered on a publicly accessible database (ClinicalTrials.gov, NCT02821728). A sample of whole blood for genotyping was obtained via the intravenous cannula inserted for use by the anesthetist, thus avoiding additional venipuncture. After prostatic massage, a first-pass urine sample was collected. TPB was performed under general or spinal anesthesia with appropriate antibiotic prophylaxis. Once anesthetized, the patient was positioned supine with their legs elevated in stirrups. A template grid was placed on the skin of the perineum and the prostate visualized by trans-rectal ultrasound scan. […] For the SAP study, eight biopsy cores of prostate tissue were taken from a region of the prostate not known or suspected to contain cancer. Five of these were snap frozen for metabolite analyses, two in RNAlater, and one in methanol. Two additional cores were taken from peri-prostatic adipose tissue and snap frozen. Snap-frozen tissue cores were individually weighed on a high-sensitivity balance and transferred to screw-top tubes. Two hundred microliters of cold Milli- Q® water and […] of autoclaved, acid-washed 710 to 1180 μm glass beads were added to each tube. […] The samples were then placed on a revolving shaker for 15 min at 4 °C. The tubes were centrifuged at 17 000 × g for 10 min at 4 °C and 50 μL of supernatant transferred to a new Eppendorf. 10 μL of 50% trichloroacetic acid (TCA) were added to each sample to precipitate proteins. The centrifugation step was repeated and 50 μL of supernatant transferred to HPLC insert vials for analysis by LC-MS/MS. […] Stock solutions of 1 mg mL^-1 sulfate (Sigma) and SMCSO (LKT laboratories Inc.) were generated by dilution of weighed powder into Milli-Q water. Serial fivefold dilutions were performed in the relevant matrix to produce 6-point calibration curves from 10 to 0 μg mL^-1 on the day of analysis. Sulfate was quantified using an Agilent 6490 triple-quad LC-MS mass spectrometer (Agilent technologies) with Thermo Scientific Hypercarb, Porous Graphitic Carbon (PGC) (3 × 50 mm, 3 μm) column. Two microliters were injected from each sample, with separation by 1% formic acid in Milli-Q water (mobile phase A) and 1% formic acid in methanol (mobile phase B). The gradient started at 8% mobile phase B, increasing to 70% over 5.5 min and returned to 8% mobile phase B for re-equilibration over the last 9.5 min. The column temperature was maintained at 60 °C and the flow rate at 0.3 mL min^-1. […] SMCSO was quantified with the Agilent system described above. […] Snap-frozen tissue cores were individually weighed on a high-sensitivity balance and transferred to screw-top tubes. Two hundred microliters of cold Milli-Q water and […] of autoclaved, acid-washed 710 to 1180 μm glass beads (Sigma) were added to each tube. […]"}, "[5]": {"set-up": "method as in PMID 14768973", "settings": "cited from earlier work"}, "[6]": {"settings": "both, human, in vivo", "description": "(§1) SMCSO was quantified with the Agilent system described above. Samples were injected at 2 µL eluted at a flow rate of 0.3 mL min^–1 on an Agilent SB‐AQ 1.8 µM (100 × 21 mm) C18 column. Separation was carried out using 10 mM ammonium acetate + 0.05% hetafluorobutyric acid in Milli‐Q water (mobile phase A) and 10 mM ammonium acetate + 0.05% hetafluorobutyric acid in 90% methanol (mobile phase B). The gradient started at 2% mobile phase B, increasing over 2 min to 5% B and returning to 2% mobile phase B for re‐equilibration over the last 2 min. The column was set at 20 °C due to the instability of SMCSO at high temperatures. The LC eluent flow was sprayed into the mass spectrometer interface without splitting. SMCSO ion was monitored by MS in MRM mode (m/z = 87.9) in positive polarity with ESI. The source parameters were: gas temperature 200 °C, gas flow 16 L min^–1, sheath gas temperature 300 °C with a sheath gas flow of 11 L min^–1, a nebulizer pressure of 50 psi, and capillary voltage 3500 V. Quantification was performed by peak area against the matrix‐matched standard curve, and identification by retention time and product ions.\n(§2) To quantify the amount of SMCSO in plasma and urine from a single portion of soup, samples were analyzed from a previously described acute intervention study (NCT02300324).24 In this study, ten volunteers consumed a single portion of the identical soup to that used in the SAP study as described above as part of a three‐phase cross‐over study. Briefly, men and woman aged 18–65 years with a BMI between 19.5 and 35 kg m^–2 were enrolled into a dietary intervention trial undertaken at the Human Nutrition Unit of the Quadram Institute Bioscience Subjects were recruited on the basis of fasted (≥8 h) screening blood/urine samples and a completed health questionnaire. The study involved a 48‐h pre‐intervention diet restriction, a study day involving a 9‐h stay at the HNU and a sample collection the following morning (24 h post soup consumption) followed by a washout period of 2 weeks. […]"}, "[7]": {"experiment": "Feeding of 35S-labeled SMCSO to human volunteers, recovery of label in urine (Waring et al.)", "assay_type": "in vivo", "source_text": "Previously, there has been only a single study of the metabolism of SMCSO in humans. Waring and colleagues describe the feeding of ^35S‐labeled SMCSO to human volunteers, and the recovery of 96% of the label in urine after 14 days, of which 40% was inorganic sulfate, indicating almost complete absorption of SMCSO (and/or its colonic microbiological derivatives).18 How SMCSO was metabolized is unknown, but it is likely that it was due to initial cysteine‐S‐conjugate β lyase activity by gut microbiome, as opposed to mammalian enzyme activity."}, "clinical": {"experiment": "clinical", "settings": "both, human, in vivo", "description": "as §1, §2"}, "[8]": {"experiment": "SMCSO in tissue cores from radical prostatectomies of men not in a dietary study", "assay_type": "in vivo, human", "settings": "two cores from each of four glands", "source_text": "To further explore the presence of un‐metabolized SMCSO in the prostate gland of men who had not been within a dietary study, tissue samples were obtained from patients who had endoscopic extraperitoneal radical prostatectomies. Access to tissue and subsequent analyses were undertaken under ethical approval granted from the Faculty of Medicine and Health Sciences Research Ethics Committee of the University of East Anglia (FMHS 20122014–37). The prostate gland was removed from the abdominal cavity immediately after resection and rapidly biopsied after extraction to avoid ischemic artifacts using a standard core biopsy instrument, as previously described.23 The extracted whole prostatectomy specimen was placed on a surgical table, the apex and base of the gland were identified, and the prostate cut transversely (axial section) half way along the gland. With the use of the midline and the urethra as guides, biopsies were taken from the peripheral zones avoiding obvious tumor sites where feasible. Two cores were taken from each of four glands for analyses. The tissue was snap frozen and analyzed for the presence of SMCSO as described above."}, "[9]": {"settings": "read-out: Plasma C max; following a portion of cruciferous vegetables, transient; cited from earlier work"}, "[10]": {"settings": "human prostate biopsy cores, LC–MS/MS, both study arms"}}, "note": "Read-outs that look alike come from different tables or passages of the source."}
{"smiles": "C[S@@+]([O-])CCCC/C(=N/OS(=O)(=O)O)S[C@@H]1O[C@H](CO)[C@@H](O)[C@H](O)[C@H]1O", "note": "[Glucoraphanin, 4‐Methylsulphinylbutyl glucosinolate]", "values": [{"measurement": "Plasma C24h", "setting": "[1]; 24 h after single 300 mL portion of broccoli soup", "result": "<10", "unit": "nM"}, {"measurement": "Plasma AUC", "setting": "[1]; single 300 mL portion of broccoli soup (280 µmoles glucoraphanin)", "result": "0.15 ± 0.08", "unit": "µM·h"}, {"measurement": "Cmax", "setting": "[1]; single 300 mL portion of broccoli soup (280 µmoles glucoraphanin), read-out: Plasma Cmax", "result": "30 ± 10", "unit": "nM"}, {"measurement": "Plasma Tmax", "setting": "[1]; single 300 mL portion of broccoli soup", "result": "2.23 ± 0.09", "unit": "h"}, {"measurement": "Effect of heating on concentration in the soup", "setting": "[2]", "result": "no effect"}, {"measurement": "Urine: percentage excreted after 24 h", "setting": "[3]; percentage of consumed glucoraphanin excreted intact, ref Sivapalan et al.19", "result": "0.51 ± 0.24", "unit": "%"}, {"measurement": "Urine: total excreted in 24 h", "setting": "[3]; single 300 mL portion of broccoli soup (280 µmoles glucoraphanin), ref Sivapalan et al.19", "result": "1.44 ± 0.66", "unit": "µmol"}, {"measurement": "Conversion of glucoraphanin to sulforaphane", "setting": "[3]; value assumed for the dose-equivalent calculation", "result": 8, "unit": "%"}, {"measurement": "Detection in prostate tissue", "setting": "[4]; [10]", "result": "No glucoraphanin or sulforaphane (and its thiol conjugates) was detected"}]}
{"smiles": "C[S@+]([O-])C[C@H](N)C(=O)O", "note": "[SMCSO, (+)‐S‐methyl cysteine sulfoxide]", "values": [{"measurement": "Share of recovered urinary label that was inorganic sulfate", "setting": "[5]; human volunteers fed 35S-labeled SMCSO, 14 days", "result": 40, "unit": "%"}, {"measurement": "Recovery of 35S label in urine", "setting": "[5]; human volunteers fed 35S-labeled SMCSO, after 14 days", "result": 96, "unit": "%"}, {"measurement": "Proportion of SMCSO absorbed (as un-metabolized SMCSO or unknown derivatives)", "setting": "[5]; human", "result": 97, "unit": "%"}, {"measurement": "Plasma concentration of SMCSO relative to that of glucoraphanin or sulforaphane", "setting": "[6]", "result": "about 1000 fold"}, {"measurement": "Effect of heating on concentration in the soup", "setting": "[2]", "result": "no effect"}, {"measurement": "Proportion of SMCSO absorbed from the GI tract", "setting": "[7]; concluding statement", "result": "~100", "unit": "%"}, {"measurement": "Proportion of consumed SMCSO that is metabolized in vivo", "setting": "[7]; inferred from this study together with Waring et al. 18", "result": "about 90%"}, {"measurement": "Detection in prostate tissue", "setting": "[4]; in vivo", "result": "present"}, {"measurement": "SMCSO level in peri-prostatic adipose tissue", "setting": "[4]; in vivo", "result": "higher levels than in prostate tissue but without significant difference between the two groups"}, {"measurement": "SMCSO level in urine, supplement group vs control", "setting": "[4]; in vivo", "result": "higher in urine in the supplement group compared to the control"}, {"measurement": "concentration at 24 h", "setting": "clinical", "result": "4660 ± 1520", "unit": "nM"}, {"measurement": "Tmax", "setting": "clinical; Plasma Tmax", "result": 1.4, "unit": "h"}, {"measurement": "Detection of SMCSO in radical prostatectomy tissue samples", "setting": "[8]", "result": "detected in seven of the eight tissue samples"}]}
{"smiles": "C[S+]([O-])CCCCN=C=S", "note": "(centres unmarked) [Sulforaphane, sulforaphane]", "values": [{"measurement": "Cmax", "setting": "[9]", "result": "< 1000", "unit": "nM"}, {"measurement": "Detection in prostate tissue", "setting": "[4]; [10]", "result": "No glucoraphanin or sulforaphane (and its thiol conjugates) was detected"}, {"measurement": "Sulforaphane in urine", "setting": "[4]; human, participants in both arms", "result": "detected in urine from participants in both arms of the study"}]}
{"smiles": "O=S(=O)(O)O", "note": "[sulfate]", "values": [{"measurement": "Sulfate level in prostate tissue between the two dietary arms", "setting": "[4]; human prostate biopsy cores", "result": "no significant difference"}]}
